Data reported in paper PMC7915519, “Zinc(II) Complexes of Amino Acids as New Active Ingredients for Anti-Acne Dermatological Preparations” (International Journal of Molecular Sciences, 2021).

Columns and labels:
[1] = tested on: human lung fibroblast (MRC-5) cell line; parameters: method as in PMID 30594780; conditions: concentrations up to 100 µM; cited from earlier work
[2] = tested on: human skin fibroblasts (1BR.3.N cell line); test: Cytotoxicity, Presto Blue cell viability assay on human skin fibroblasts; assay type: cell-based; conditions: 1BR.3.N human skin fibroblasts, 24 h incubation, Hill Equation, read-out: IC50 Values (Mean ± SD) Fibroblasts
Description: The cytotoxicity test was conducted on a 1BR.3.N cell line (human skin fibroblasts, ECACC, co. 90020508) and human epidermal keratinocytes, neonatal (Millipore, co. SCCE020) purchased from Sigma-Aldrich (Merck, Darmstadt, Germany). […] The cells were maintained at 37 °C and 5% CO2 in a humidified incubator. Next, the medium was changed into a starvation medium for the 1BR.3.N cell line (EpiGROTM human epidermal keratinocyte complete media kit for keratinocytes) with a variable final concentration of five analyzed complexes (ZnGlu (1), ZnGly (2), ZnHis (3), ZnPro (4), ZnTrp (6)) and two controls, ZnPCA and ZnCl2.

[3] = tested on: human epidermal keratinocytes, neonatal; test: Cytotoxicity, Presto Blue cell viability assay on human epidermal keratinocytes; assay type: cell-based; conditions: 24 h incubation, Hill Equation, read-out: IC50 Values (Mean ± SD) Keratinocytes
Description: The cytotoxicity test was conducted on a 1BR.3.N cell line (human skin fibroblasts, ECACC, co. 90020508) and human epidermal keratinocytes, neonatal (Millipore, co. SCCE020) purchased from Sigma-Aldrich (Merck, Darmstadt, Germany). The same procedure was conducted for keratinocytes in EpiGROTM human epidermal keratinocyte complete media with 6 mM L-glutamine, 0.405 EpiFactor P, 1.0 μM epinephrine, 0.5 ng/mL rh TGF-α, 100 ng/mL hydrocortisone hemisuccinate, 5 μg/mL rh insulin and apo-transferrin. The cells were maintained at 37 °C and 5% CO2 in a humidified incubator. Next, the medium was changed into a starvation medium for the 1BR.3.N cell line (EpiGROTM human epidermal keratinocyte complete media kit for keratinocytes) with a variable final concentration of five analyzed complexes (ZnGlu (1), ZnGly (2), ZnHis (3), ZnPro (4), ZnTrp (6)) and two controls, ZnPCA and ZnCl2.

[4] = tested on: Cutibacterium acnes ATCC 6919; test: Antimicrobial activity by microdilution method (CLSI M11), anaerobic conditions; assay type: cell-based; conditions: C. acnes ATCC 6919, 48 h at 37 °C, tested up to 500 mg/L
Description: The antimicrobial potential of zinc complexes against the anaerobic strain Cutibacterium acnes ATCC 6919 was tested by the microdilution method in Brucella broth supplemented with hemin, vitamin K1 and laked horse blood according to the CLSI document M11 (9th Edition) for antimicrobial susceptibility testing of anaerobic bacteria. Antimicrobial activity testing assays were conducted in 96-well cell culture plates in anaerobic conditions. The antimicrobial properties of zinc complexes were tested up to 500 mg/L. […] The bacterial suspension and dilutions of the tested compounds were combined in equal volumes to achieve the expected concentrations of zinc amino acid complexes. Samples as well as adequate abiotic and biotic controls were incubated for 48 h at 37 °C after being placed in 96-well cell culture plates in anaerobic jars, in which anaerobic conditions were formed using Anoxomat Mark II CTS (Mart Microbiology […], the Netherlands). The minimum inhibitory concentration (MIC), expressed in mg/L, was determined as the lowest concentration of zinc amino acid complexes at which no growth of C. acnes was observed. […] The Brucella agar plates were incubated for 48 h at 37 °C after placing the plates in anaerobic jars, in which anaerobic conditions were created.

L929 fibroblast cultures = tested on: L929 fibroblast cultures; parameters: method as in PMID 28246541; conditions: murine model; read-out: IC50 against L929 fibroblast cultures; cited from earlier work
HaCaT keratinocytes = conditions: concentration equal to 100 μM; cited from earlier work

Compound	toxic effects on MRC-5 cell line [1]	IC50 [2]	IC50 [3]	MIC Value [4]	IC50 (L929 fibroblast cultures)	toxicity to HaCaT keratinocytes (HaCaT keratinocytes)
copper(II) complex with 5-hydroxytryptophan	no toxic effects					
NCC(=O)[O-].NCC(=O)[O-].[Zn+2] [ZnGly (2)]		120 ± 4.61 µM	138 ± 8.11 µM	100 µg/mL		
[Cl-].[Cl-].[Zn+2] [ZnCl2]		163 ± 4.1 µM	127 µM		0.928 µM	non-toxic
O=C1CCC(C(=O)[O-])N1.O=C1CCC(C(=O)[O-])N1.[Zn+2] (centres unmarked) [ZnPCA, zinc 2-pirrolidone 5-carboxylate]		172 ± 9.69 µM	102 ± 2.07 µM	175 µg/mL		
